The source of these data is patent US10604512B2, “3-(1H-indol-2-yl)-1H-indazoles and therapeutic uses thereof” (Samumed, LLC, priority 2015, dated 2020).

Where only a bound is given, the exact number is not on record here.

Test [1] concerns Wnt activity (Sp5-Luc reporter, TCF/LEF binding sites) in SW480 colon carcinoma cells. The test can be described thus: Screening assay for Wnt activity: Sp5-Luc reporter gene assay in stably transduced SW480 colon carcinoma cells. The class given is cell-based. The settings on record: Homo sapiens; for EC50: overnight incubation, 10-point curve from 10 μM. The procedure, abridged: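 SW480 cells stably transduced with a luciferase reporter driven by an Sp5 promoter of eight TCF/LEF sites were plated at 4,000 cells/well in 1% FBS medium. They were exposed overnight at 37° C to a 10-point 1:3 dilution series from 10 μM (0.1% DMSO). Luminescence was normalized to DMSO for four-parameter EC50, or percent inhibition at 10 μM.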

In test [2] the test system is Primary human fibroblasts derived from IPF patients (LL29 cells) treated with TGF-β1. The test is described as follows: Inhibition of the fibrotic process: αSMA staining in TGF-β1-treated primary human fibroblasts from IPF patients (LL29 cells). Format: cell-based. The settings on record: Fibroblast, 96 h; for EC50: % αSMA-positive LL29 cells, TGF-β1 20 ng/mL, 4 days; for inhibition at 10 µM: given where EC50 >10 μM, αSMA, LL29 cells, TGF-β1, 4 days, read-out: percent inhibition at 10 μM. The procedure, abridged:
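LL29 IPF-patient fibroblasts in 1% FBS stimulated with TGF-β1 (20 ng/mL) and compound (10 μM–1.87 nM, 0.1% DMSO) for 4 days at 37 °C. SYTOX-positive cells excluded; % αSMA-positive cells imaged, normalized to TGF-β1/DMSO wells; EC50 by nonlinear regression, else % inhibition at 10 μM.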

One may read the EC50 as the concentration at which the effect is half-maximal. A low value points to greater potency. Regarding `CN1CCN(c2cccc3[nH]c(-c4n[nH]c5ccc(-c6cncc(NC(=O)C7CCCC7)c6)cc45)cc23)CC1` [Compound 246, N-(5-(3-(4-(4-Methylpiperazin-1-yl)-1H-indol-2-yl)-1H-indazol-5-yl)pyridin-3-yl)cyclopentanecarboxamide], the values for the EC50 in test [1] and in test [2] were 1.25 µM and 2.56 µM, respectively.

In the case of `CN1CCN(c2cccc3[nH]c(-c4n[nH]c5ccc(-c6cncnc6)cc45)cc23)CC1` [Compound 251, 3-(4-(4-Methylpiperazin-1-yl)-1H-indol-2-yl)-5-(pyrimidin-5-yl)-1H-indazole], the EC50 was found to be 1.42 µM in test [1] and 3.04 µM in test [2].

Turning to `CCC(=O)Nc1cncc(-c2ccc3[nH]nc(-c4cc5ccccc5[nH]4)c3c2)c1` [Compound 253, N-(5-(3-(1H-Indol-2-yl)-1H-indazol-5-yl)pyridin-3-yl)propionamide], the EC50 in test [1] stood at 0.16 µM; in test [2], 2.31 µM.

As for `c1cncc(-c2ccc3[nH]nc(-c4cc5ccccc5[nH]4)c3c2)c1` [Compound 256, 3-(1H-Indol-2-yl)-5-(pyridin-3-yl)-1H-indazole], the EC50 in test [1] was determined as 0.018 µM; in test [2], 9.77 µM.

Take `CCNCc1cncc(-c2ccc3[nH]nc(-c4cc5ccccc5[nH]4)c3c2)c1` [Compound 258, N-((5-(3-(1H-Indol-2-yl)-1H-indazol-5-yl)pyridin-3-yl)methyl)ethanamine]: the values for the EC50 in test [1] and in test [2] were 0.415 µM and 0.235 µM, respectively.

The inhibition is how much of the control response was suppressed. Molecule `O=C(Cc1ccccc1)Nc1cncc(-c2ccc3[nH]nc(-c4cc5ccccc5[nH]4)c3c2)c1` [Compound 262, N-(5-(3-(1H-Indol-2-yl)-1H-indazol-5-yl)pyridin-3-yl)-2-phenylacetamide] came in with an EC50 in test [1] of 1.55 µM. In test [2], the EC50 was over 10 µM and the inhibition at 10 µM stood at 31.8%.

As for `O=C(Nc1cncc(-c2ccc3[nH]nc(-c4cc5ccccc5[nH]4)c3c2)c1)c1ccccc1` [Compound 263, N-(5-(3-(1H-Indol-2-yl)-1H-indazol-5-yl)pyridin-3-yl)benzamide], the values for the EC50 in test [1] and in test [2] were 0.38 µM and 1.57 µM, respectively.

`c1ccc2[nH]c(-c3n[nH]c4ccc(-c5cncc(CN6CCCC6)c5)cc34)cc2c1` [Compound 266, 3-(1H-Indol-2-yl)-5-(5-(pyrrolidin-1-ylmethyl)pyridin-3-yl)-1H-indazole]: the results for the concentration giving a half-maximal response (EC50) in test [1] and in test [2] were 0.36 µM and 0.563 µM, respectively.

In test [1], `c1ccc2[nH]c(-c3n[nH]c4ccc(-c5cncc(CN6CCCCC6)c5)cc34)cc2c1` [Compound 267, 3-(1H-Indol-2-yl)-5-(5-(piperidin-1-ylmethyl)pyridin-3-yl)-1H-indazole] had an EC50 of 0.675 µM. Besides, in test [2], the EC50 was over 10 µM and the inhibition at 10 µM was 49.9%.

In the case of `CC(C)(C)CC(=O)Nc1cncc(-c2ccc3[nH]nc(-c4cc5ccccc5[nH]4)c3c2)c1` [Compound 268, N-(5-(3-(1H-Indol-2-yl)-1H-indazol-5-yl)pyridin-3-yl)-3,3-dimethylbutanamide], the 50% effective concentration (EC50) in test [1] turned out to be 0.185 µM; in test [2] it was 6.89 µM.

Turning to `O=C(Nc1cncc(-c2ccc3[nH]nc(-c4cc5ccccc5[nH]4)c3c2)c1)C1CCC1` [Compound 273, N-(5-(3-(1H-Indol-2-yl)-1H-indazol-5-yl)pyridin-3-yl) cyclobutanecarboxamide], the half-maximal effective concentration (EC50) was 0.685 µM in test [1] and over 10 µM in test [2]. For the same molecule, the inhibition at 10 µM in test [2] worked out at 3.5%.

In test [1], `O=C(Nc1cncc(-c2ccc3[nH]nc(-c4cc5ccccc5[nH]4)c3c2)c1)C1CCCCC1` [Compound 275, N-(5-(3-(1H-Indol-2-yl)-1H-indazol-5-yl)pyridin-3-yl) cyclohexanecarboxamide] had a concentration giving a half-maximal response (EC50) of 0.588 µM. In test [2], the 50% effective concentration (EC50) was over 10 µM and the inhibition at 10 µM amounted to 43.7%.

On to `CC(C)CC(=O)Nc1cncc(-c2ccc3[nH]nc(-c4cc5c(-c6ccsc6)cccc5[nH]4)c3c2)c1` [Compound 282, 3-Methyl-N-(5-(3-(4-(thiophen-3-yl)-1H-indol-2-yl)-1H-indazol-5-yl)pyridin-3-yl)butanamide], for which the figures for the 50% effective concentration (EC50) in test [1] and in test [2] were 0.075 µM and over 10 µM, respectively. Further, the inhibition at 10 µM in test [2] was 34.9%.

In the case of `CC(C)C(=O)Nc1cncc(-c2ccc3[nH]nc(-c4cc5c(-c6ccsc6)cccc5[nH]4)c3c2)c1` [Compound 289, N-(5-(3-(4-(Thiophen-3-yl)-1H-indol-2-yl)-1H-indazol-5-yl)pyridin-3-yl) isobutyramide], the EC50 in test [1] is 0.12 µM; in test [2] it was 8.4 µM.

On to `c1ccc(-c2ccc3[nH]nc(-c4cc5c(-c6ccoc6)cccc5[nH]4)c3c2)nc1` [Compound 336, 3-(4-(Furan-3-yl)-1H-indol-2-yl)-5-(pyridin-2-yl)-1H-indazole], for which it took 3.91 µM to reach a half-maximal effect in test [1] (EC50). In addition, in test [2], the concentration giving a half-maximal response (EC50) was over 10 µM and the inhibition at 10 µM is 0%.

As for `c1cncc(-c2ccc3[nH]nc(-c4cc5c(-c6cccs6)cccc5[nH]4)c3c2)c1` [Compound 340, 5-(Pyridin-3-yl)-3-(4-(thiophen-2-yl)-1H-indol-2-yl)-1H-indazole], the figures for the EC50 in test [1] and in test [2] were 0.074 µM and over 10 µM, respectively. In addition, the inhibition at 10 µM in test [2] worked out at 38.3%.

`CN(C)Cc1cncc(-c2ccc3[nH]nc(-c4cc5c(-c6cccs6)cccc5[nH]4)c3c2)c1` [Compound 349, N,N-Dimethyl-1-(5-(3-(4-(thiophen-2-yl)-1H-indol-2-yl)-1H-indazol-5-yl)pyridin-3-yl)methanamine]: the concentration for a half-maximal effect (EC50) in test [1] worked out at 0.169 µM; in test [2] it was 1.15 µM.

`c1csc(-c2cccc3[nH]c(-c4n[nH]c5ccc(-c6ccncc6)cc45)cc23)c1` [Compound 354, 5-(pyridin-4-yl)-3-(4-(thiophen-2-yl)-1H-indol-2-yl)-1H-indazole]: the half-maximal effective concentration (EC50) in test [1] was determined as 4.94 µM. Besides, in test [2], the EC50 was over 10 µM and the inhibition at 10 µM amounted to 0%.

The molecule `CC(C)(C)C(=O)Nc1cncc(-c2ccc3[nH]nc(-c4cc5c(-c6cc(F)cc(CNS(C)(=O)=O)c6)cccc5[nH]4)c3c2)c1` [Compound 484, N-(5-(3-(4-(3-Fluoro-5-(methylsulfonamidomethyl)phenyl)-1H-indol-2-yl)-1H-indazol-5-yl)pyridin-3-yl)pivalamide] yielded an EC50 in test [1] of 0.115 µM. In test [2], the EC50 was over 10 µM and the inhibition at 10 µM stood at 25.5%.

Turning to `CS(=O)(=O)NCc1cc(F)cc(-c2cccc3[nH]c(-c4n[nH]c5ccc(-c6ccncc6)cc45)cc23)c1` [Compound 494, N-(3-Fluoro-5-(2-(5-(pyridin-4-yl)-1H-indazol-3-yl)-1H-indol-4-yl)benzyl) methane sulfonamide], the EC50 in test [1] amounted to 3.9 µM. Also, in test [2], the 50% effective concentration (EC50) is over 10 µM and the inhibition at 10 µM came out at 10.4%.

For the molecule `CS(=O)(=O)NCc1cc(F)cc(-c2cccc3[nH]c(-c4n[nH]c5ccc(-c6cncnc6)cc45)cc23)c1` [Compound 503, N-(3-Fluoro-5-(2-(5-(pyrimidin-5-yl)-1H-indazol-3-yl)-1H-indol-4-yl)benzyl) methanesulfonamide], the values for the EC50 in test [1] and in test [2] were 0.205 µM and 0.311 µM, respectively.

`CC(C)CC(=O)Nc1cncc(-c2ccc3[nH]nc(-c4cc5ncccc5[nH]4)c3c2)c1` [Compound 506, N-(5-(3-(1H-Pyrrolo[3,2-b]pyridin-2-yl)-1H-indazol-5-yl)pyridin-3-yl)-3-methylbutanamide]: in test [1], the EC50 amounted to 0.086 µM. In addition, in test [2], the EC50 was over 10 µM and the inhibition at 10 µM amounted to 24.2%.

For `O=C(Nc1cncc(-c2ccc3[nH]nc(-c4cc5ncccc5[nH]4)c3c2)c1)c1ccccc1` [Compound 515, N-(5-(3-(1H-Pyrrolo[3,2-b]pyridin-2-yl)-1H-indazol-5-yl)pyridin-3-yl) benzamide], in test [1], the EC50 worked out at 0.908 µM. Moreover, in test [2], the EC50 was over 10 µM and the inhibition at 10 µM worked out at 0%.

In test [1], `c1cnc2cc(-c3n[nH]c4ccc(-c5cncc(CN6CCCCC6)c5)cc34)[nH]c2c1` [Compound 519, 5-(5-(Piperidin-1-ylmethyl)pyridin-3-yl)-3-(1H-pyrrolo[3,2-b]pyridin-2-yl)-1H-indazole] registered a half-maximal effective concentration (EC50) of 0.165 µM. In test [2], the half-maximal effective concentration (EC50) was over 10 µM and the inhibition at 10 µM came out at 25.4%.

Consider `O=C(Nc1cncc(-c2ccc3[nH]nc(-c4cc5ncccc5[nH]4)c3c2)c1)C1CCC1` [Compound 525, N-(5-(3-(1H-Pyrrolo[3,2-b]pyridin-2-yl)-1H-indazol-5-yl)pyridin-3-yl) cyclobutanecarboxamide], for which, in test [1], the midpoint of the response, the EC50, lay at 0.109 µM. In test [2], the EC50 is over 10 µM and the inhibition at 10 µM amounted to 29.4%.

Molecule `Fc1cccc(-c2cccc3[nH]c(-c4n[nH]c5ccc(C6CCNCC6)cc45)cc23)c1` [Compound 533, 3-(4-(3-Fluorophenyl)-1H-indol-2-yl)-5-(piperidin-4-yl)-1H-indazole] showed an EC50 in test [1] of 3.83 µM. Also, in test [2], the concentration giving a half-maximal response (EC50) is over 10 µM and the inhibition at 10 µM was 0%.

With `Fc1ccc(-c2cccc3[nH]c(-c4n[nH]c5ccc(C6=CCNCC6)cc45)cc23)cc1` [Compound 550, 3-(4-(4-Fluorophenyl)-1H-indol-2-yl)-5-(1,2,3,6-tetrahydropyridin-4-yl)-1H-indazole], the inhibition at 10 µM in test [1] (at 10 μM, given where EC50 >10 μM, read-out: percent inhibition at 10 μM) amounted to 48%; in test [2], 41.7%. Moreover, the EC50 in test [1] and in test [2] was over 10 µM each time.
